Key:
Format in all cases: in vivo
barnyard grass [1] = assay: Test Example 1: weedkilling efficacy, preemergent weed treatment in the submerged state; A: barnyard grass
Summary of the method: (§1)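 Alluvial soil in Wagner pots flooded to 4 cm; barnyard grass, bulrush and oval-leafed pondweed seeds sown, then 2.5-leaf rice seedlings transplanted. Same day, emulsified compound diluted in water to set g/ha dosages and applied to water surface; greenhouse 25–30 °C, effect scored by criteria after 3 weeks.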

bulrush [2] = assay: Test Example 1: weedkilling efficacy, preemergent weed treatment in the submerged state; B: bulrush
Summary of the method: as §1

bulrush [3] = assay: Test Example 2: weedkilling efficacy, growth period weed treatment in the submerged state; B: bulrush
Summary of the method: (§2)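 First, alluvial soil in pots is flooded to 4 cm and mixed seed is sown. Next, plants grow in a greenhouse at 25 to 30° C until the 1-2 leaf stage. Then diluted emulsion is applied onto the water surface at the given g/ha rate, and injury is assessed after 3 weeks.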

oval-leafed pondweed [4] = assay: Test Example 2: weedkilling efficacy, growth period weed treatment in the submerged state; C: oval-leafed pondweed
Summary of the method: as §2

transplanted rice = assay: Test Example 1: preemergent weed treatment in the submerged state, effect on crop; a: transplanted rice
Summary of the method: as §1

oval-leafed pondweed [5] = assay: Test Example 1: weedkilling efficacy, preemergent weed treatment in the submerged state; C: oval-leafed pondweed
Summary of the method: as §1

barnyard grass [6] = assay: Test Example 2: weedkilling efficacy, growth period weed treatment in the submerged state; A: barnyard grass
Summary of the method: as §2

SMILES	A: barnyard grass, weed kill grade (barnyard grass [1]; treatment dosage 320 g/ha)	B: bulrush, weed kill grade (bulrush [2]; treatment dosage 320 g/ha)	B (bulrush) weedkilling efficacy grade (bulrush [3]; treatment dosage 320 g/ha)	C (oval-leafed pondweed) weedkilling efficacy grade (oval-leafed pondweed [4]; treatment dosage 320 g/ha)	a: transplanted rice, effect on crop grade (transplanted rice; treatment dosage 320 g/ha)	C: oval-leafed pondweed, weed kill grade (oval-leafed pondweed [5]; treatment dosage 320 g/ha)	A (barnyard grass) weedkilling efficacy grade (barnyard grass [6]; treatment dosage 320 g/ha)	A: barnyard grass, weed kill grade (barnyard grass [1]; treatment dosage 252 g/ha)	B: bulrush, weed kill grade (bulrush [2]; treatment dosage 252 g/ha)	B (bulrush) weedkilling efficacy grade (bulrush [3]; treatment dosage 252 g/ha)	C (oval-leafed pondweed) weedkilling efficacy grade (oval-leafed pondweed [4]; treatment dosage 252 g/ha)	a: transplanted rice, effect on crop grade (transplanted rice; treatment dosage 252 g/ha)	C: oval-leafed pondweed, weed kill grade (oval-leafed pondweed [5]; treatment dosage 252 g/ha)	A (barnyard grass) weedkilling efficacy grade (barnyard grass [6]; treatment dosage 252 g/ha)	A (barnyard grass) weedkilling efficacy grade (barnyard grass [1]; treatment dosage 252 g/ha)	B (bulrush) weedkilling efficacy grade (bulrush [2]; treatment dosage 252 g/ha)	a (transplanted rice) effect on crop grade (transplanted rice; treatment dosage 252 g/ha)	C (oval-leafed pondweed) weedkilling efficacy grade (oval-leafed pondweed [5]; treatment dosage 252 g/ha)
Cc1cc(NC(=O)C(C)(C)N2COCN(c3ccccc3)C2=O)nc(C(F)(F)F)c1 [A-2-57]	5 (weed kill ratio 90% or more, (practically complete withering))	5 (weed kill ratio 90% or more, (practically complete withering))	5 (weed kill ratio 90% or more, (practically complete withering))	5 (weed kill ratio 90% or more, (practically complete withering))	0 (weed kill ratio 5% or less (practically no effect))	5 (weed kill ratio 90% or more, (practically complete withering))	5 (weed kill ratio 90% or more, (practically complete withering))											
CC(C)(C(=O)Nc1nnc(C(F)(F)F)s1)N1COCN(c2ccccc2)C1=O [A-1-14]	4 (weed kill ratio 70% or more, less than 90%)	5 (weed kill ratio 90% or more, (practically complete withering))	5 (weed kill ratio 90% or more, (practically complete withering))	2 (weed kill ratio 20% or more, less than 40%)	1 (weed kill ratio 5% or more, less than 20%)	3 (weed kill ratio 40% or more, less than 70%)	2 (weed kill ratio 20% or more, less than 40%)											
CCOc1cc(C(F)(F)F)cc(NC(=O)C(C)(C)N2COCN(c3ccccc3)C2=O)n1 [A-2-60]	5 (weed kill ratio 90% or more, (practically complete withering))	5 (weed kill ratio 90% or more, (practically complete withering))	5 (weed kill ratio 90% or more, (practically complete withering))	5 (weed kill ratio 90% or more, (practically complete withering))	2 (weed kill ratio 20% or more, less than 40%)	5 (weed kill ratio 90% or more, (practically complete withering))	5 (weed kill ratio 90% or more, (practically complete withering))											
CSc1nc(NC(=O)C(C)(C)N2COCN(c3ccccc3)C2=O)ns1 [A-1-17]	2 (weed kill ratio 20% or more, less than 40%)	5 (weed kill ratio 90% or more, (practically complete withering))	4 (weed kill ratio 70% or more, less than 90%)	2 (weed kill ratio 20% or more, less than 40%)	0 (weed kill ratio 5% or less (practically no effect))	3 (weed kill ratio 40% or more, less than 70%)	0 (weed kill ratio 5% or less (practically no effect))											
CC(C)(C(=O)Nc1cc(-c2ccsc2)ccn1)N1COCN(c2ccccc2)C1=O [A-5-01]	4 (weed kill ratio 70% or more, less than 90%)	5 (weed kill ratio 90% or more, (practically complete withering))	4 (weed kill ratio 70% or more, less than 90%)	4 (weed kill ratio 70% or more, less than 90%)	0 (weed kill ratio 5% or less (practically no effect))	5 (weed kill ratio 90% or more, (practically complete withering))	4 (weed kill ratio 70% or more, less than 90%)											
CC(C)(C(=O)Nc1ccnc(Br)c1)N1COCN(c2ccccc2)C1=O [A-4-03]								5 (weed kill ratio 90% or more, (practically complete withering))	5 (weed kill ratio 90% or more, (practically complete withering))	5 (weed kill ratio 90% or more, (practically complete withering))	4 (weed kill ratio 70% or more, less than 90%)	1 (weed kill ratio 5% or more, less than 20%)	5 (weed kill ratio 90% or more, (practically complete withering))	2 (weed kill ratio 20% or more, less than 40%)				
CC(C)(C(=O)Nc1cc(Cl)cc(Cl)n1)N1COCN(c2c(F)cccc2F)C1=O [A-6-01]								5 (weed kill ratio 90% or more, (practically complete withering))	5 (weed kill ratio 90% or more, (practically complete withering))	5 (weed kill ratio 90% or more, (practically complete withering))	5 (weed kill ratio 90% or more, (practically complete withering))	3 (weed kill ratio 40% or more, less than 70%)	5 (weed kill ratio 90% or more, (practically complete withering))	5 (weed kill ratio 90% or more, (practically complete withering))				
CC1=C(c2ccccc2)C(=O)N(C(C)(C)C(=O)Nc2cccc(-c3ccccc3)n2)CO1 [B-2-60]										3 (weed kill ratio 40% or more, less than 70%)	3 (weed kill ratio 40% or more, less than 70%)			4 (weed kill ratio 70% or more, less than 90%)	5 (weed kill ratio 90% or more, (practically complete withering))	5 (weed kill ratio 90% or more, (practically complete withering))	0 (weed kill ratio 5% or less (practically no effect))	5 (weed kill ratio 90% or more, (practically complete withering))
Cc1ccc(N2COCN(C(C)(C)C(=O)Nc3cc(F)cc(F)n3)C2=O)cc1 [A-6-10]	5 (weed kill ratio 90% or more, (practically complete withering))	5 (weed kill ratio 90% or more, (practically complete withering))	5 (weed kill ratio 90% or more, (practically complete withering))	5 (weed kill ratio 90% or more, (practically complete withering))	1 (weed kill ratio 5% or more, less than 20%)	5 (weed kill ratio 90% or more, (practically complete withering))	4 (weed kill ratio 70% or more, less than 90%)											
Cc1cccc(N2COCN(C(C)(C)C(=O)Nc3cc(C(F)(F)F)ccn3)C2=O)c1 [A-6-07]	5 (weed kill ratio 90% or more, (practically complete withering))	5 (weed kill ratio 90% or more, (practically complete withering))	5 (weed kill ratio 90% or more, (practically complete withering))	3 (weed kill ratio 40% or more, less than 70%)	1 (weed kill ratio 5% or more, less than 20%)	5 (weed kill ratio 90% or more, (practically complete withering))	4 (weed kill ratio 70% or more, less than 90%)											
CC(C)(C(=O)Nc1cccc(-c2ccccc2)n1)N1COCN(c2ccccc2)C1=O [A-2-50]								5 (weed kill ratio 90% or more, (practically complete withering))	5 (weed kill ratio 90% or more, (practically complete withering))	4 (weed kill ratio 70% or more, less than 90%)	3 (weed kill ratio 40% or more, less than 70%)	0 (weed kill ratio 5% or less (practically no effect))	5 (weed kill ratio 90% or more, (practically complete withering))	4 (weed kill ratio 70% or more, less than 90%)				
CC(C)(C(=O)Nc1cc(Cl)cc(Cl)n1)N1COCN(c2ccccc2)C1=S [A-2-18]	5 (weed kill ratio 90% or more, (practically complete withering))	5 (weed kill ratio 90% or more, (practically complete withering))	5 (weed kill ratio 90% or more, (practically complete withering))	5 (weed kill ratio 90% or more, (practically complete withering))	0 (weed kill ratio 5% or less (practically no effect))	5 (weed kill ratio 90% or more, (practically complete withering))	5 (weed kill ratio 90% or more, (practically complete withering))											
